Data as given in ChEMBL document CHEMBL3045644, “Synthesis anti-inflammatory and anticancer activity evaluation of some pyrazole and oxadiazole derivatives” (2012).

Assays:
Format in all cases: functional
NCI-H522 = test: Growth inhibition of Homo sapiens (human) NCI-H522 cells at 10 uM after 48 hr by SRB assay; conditions: NCI-H522, 48 h, read-out: GI
Rattus norvegicus = test: Anti-inflammatory activity in Charles Foster albino Rattus norvegicus (rat) assessed as inhibition of carrageenan-induced paw edema at 50 mg/kg, po […] measured up to 3 hr relative to control
HepG2 = test: Growth inhibition of Homo sapiens (human) HepG2 cells at 10 uM after 48 hr by SRB assay; conditions: HepG2, 48 h, read-out: GI
T47D = test: Growth inhibition of Homo sapiens (human) T47D cells at 10 uM after 48 hr by SRB assay; conditions: read-out: GI
PA-1 = test: Growth inhibition of Homo sapiens (human) PA1 cells at 10 uM after 48 hr by SRB assay; conditions: PA-1, 48 h, read-out: GI
HCT-15 = test: Growth inhibition of Homo sapiens (human) HCT15 cells at 10 uM after 48 hr by SRB assay; conditions: HCT-15, 48 h, read-out: GI

SMILES	inhibition of growth at 10 µM (NCI-H522)	inhibition in vivo at 50 mg/kg (Rattus norvegicus)	inhibition of growth at 10 µM (HepG2)	inhibition of growth at 10 µM (T47D)	inhibition of growth at 10 µM (PA-1)	inhibition of growth at 10 µM (HCT-15)
COc1ccc(OC)c(C2CC(c3ccncc3)=NN2c2ccccc2)c1 (centres undefined)	29%	18%	32%	37%	31%	5%
CN(C)c1ccc(C2CC(c3cccnc3)=NN2c2ccccc2)cc1 (centres undefined)	20%	34%	32%	33%	20%	1%
C[C@@H]1C[C@@H]([C@H](O)CC2CC(=O)NC(=O)C2)C(=O)[C@@H](C)C1 [CYCLOHEXIMIDE]	13%	–	5%	9%	51%	3%
CN(C)c1ccc(C2CC(c3ccccn3)=NN2)cc1 (centres undefined)	34%	18%	29%	3%	21%	5%
COc1cc(-c2nc(-c3cnccn3)no2)ccc1O	20%	26%	20%	35%	20%	1%
CN(C)c1ccc(C2CC(c3ccncc3)=NN2)cc1 (centres undefined)	28%	0%	29%	21%	26%	3%
O=P1(N(CCCl)CCCl)NCCCO1 (centres undefined) [CYCLOPHOSPHAMIDE ANHYDROUS]	4%	–	14%	18%	4%	5%
COc1cc(-c2nc(-c3ccccn3)no2)ccc1O	48%	24%	39%	33%	30%	3%
CN(C)c1ccc(C2CC(c3ccccn3)=NN2c2ccccc2)cc1 (centres undefined)	26%	35%	24%	41%	16%	12%
COc1cc(-c2nc(-c3ccncc3)no2)ccc1O	25%	14%	13%	34%	32%	5%
COc1ccc(OC)c(C2CC(c3cccnc3)=NN2c2ccccc2)c1 (centres undefined)	32%	24%	26%	22%	32%	7%
COc1ccc(OC)c(C2CC(c3ccncc3)=NN2)c1 (centres undefined)	24%	13%	34%	19%	24%	28%
O=c1[nH]cc(F)c(=O)[nH]1 [FLUOROURACIL]	24%	–	18%	5%	10%	8%
COc1ccc(OC)c(-c2nc(-c3cnccn3)no2)c1	23%	11%	17%	41%	26%	7%
COc1ccc(OC)c(C2CC(c3ccccn3)=NN2)c1 (centres undefined)	28%	15%	23%	26%	25%	10%
CN(C)c1ccc(C2CC(c3cccnc3)=NN2)cc1 (centres undefined)	25%	22%	35%	15%	36%	6%
COc1ccc(OC)c(-c2nc(-c3ccccn3)no2)c1	23%	28%	33%	37%	25%	5%
CN(C)c1ccc(C2CC(c3ccncc3)=NN2c2ccccc2)cc1 (centres undefined)	32%	32%	35%	7%	24%	6%
COc1ccc(OC)c(C2CC(c3ccccn3)=NN2c2ccccc2)c1 (centres undefined)	16%	27%	20%	12%	18%	9%
COc1ccc(OC)c(-c2nc(-c3ccncc3)no2)c1	10%	35%	27%	25%	19%	2%
CC(C)Cc1ccc(C(C)C(=O)O)cc1 (centres undefined) [IBUPROFEN]	–	39%	–	–	–	–
COc1ccc(OC)c(C2CC(c3cccnc3)=NN2)c1 (centres undefined)	40%	15%	34%	13%	31%	4%
